{"source": "ChEMBL document CHEMBL4382202", "about": "“1-(2-Hydroxybenzoyl)-thiosemicarbazides are promising antimicrobial agents targeting d-alanine-d-alanine ligase in bacterio” (Eur J Med Chem, 2018)", "note": "Active and inactive are the calls of the source. The calls are words filed in the database; no cut-off is given here."}
{"target": "T1, D-alanine--D-alanine ligase (Enterococcus faecalis (strain ATCC 700802 / V583)) (UniProt Q47758)", "T1 sequence (whole entry)": "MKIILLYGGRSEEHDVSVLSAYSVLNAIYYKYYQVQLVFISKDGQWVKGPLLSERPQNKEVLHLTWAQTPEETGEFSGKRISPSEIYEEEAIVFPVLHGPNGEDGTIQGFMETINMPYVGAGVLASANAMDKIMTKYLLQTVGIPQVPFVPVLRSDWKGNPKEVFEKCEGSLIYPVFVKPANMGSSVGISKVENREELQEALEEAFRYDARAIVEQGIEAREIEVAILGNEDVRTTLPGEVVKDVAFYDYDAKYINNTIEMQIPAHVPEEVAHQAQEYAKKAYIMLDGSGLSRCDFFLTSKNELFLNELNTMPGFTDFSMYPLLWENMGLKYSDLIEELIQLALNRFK", "experiment": "Inhibition of Enterococcus faecalis JH2-2 C-terminal 6His-tagged DdlB expressed in Escherichia coli LMG194 at IC50 after 90 mins by Biomol Green reagent assay relative to control", "units": {"inhibition": "%"}}
{"smiles": "O=C(NNC(=S)Nc1ccccc1)c1ccccc1O", "inhibition": "> 90"}
{"target": "T1, D-alanine--D-alanine ligase (Enterococcus faecalis (strain ATCC 700802 / V583))", "experiment": "Inhibition of Enterococcus faecalis JH2-2 C-terminal 6His-tagged DdlB expressed in Escherichia coli LMG194 at 10 uM preincubated for 30 mins followed by substrate addition and measured after 20 mins by Biomol Green reagent assay relative to control", "units": {"inhibition": "%"}}
{"smiles": "O=C(NNC(=S)Nc1ccc(Cl)cc1)c1ccccc1O", "inhibition": "> 30"}
{"smiles": "COc1ccccc1NC(=S)NNC(=O)c1ccccc1O", "inhibition": "> 30"}
{"smiles": "O=C(NNC(=S)Nc1ccccc1)c1ccccc1O", "inhibition": "> 30"}
{"smiles": "O=C(NNC(=S)Nc1ccc(Cl)c(Cl)c1)c1ccc(I)cc1O", "inhibition": "> 30"}
{"smiles": "O=C(NNC(=S)Nc1cccc(F)c1)c1ccccc1O", "inhibition": "> 30"}
{"smiles": "N[C@@H]1CONC1=O", "inhibition": "> 30"}
{"smiles": "O=C(NNC(=S)Nc1ccccc1F)c1ccccc1O", "inhibition": "> 30"}
{"smiles": "O=C(NNC(=S)Nc1cccc2ccccc12)c1ccccc1O", "inhibition": "> 30"}
{"smiles": "O=C(NNC(=S)Nc1cccnc1)c1ccccc1O", "inhibition": 30}
{"smiles": "N#Cc1ccc(NC(=S)NNC(=O)c2ccccc2O)cc1", "inhibition": "> 30"}
{"smiles": "O=C(NNC(=S)Nc1ccccc1Cl)c1ccccc1O", "inhibition": "> 30"}
{"smiles": "O=C(NNC(=S)Nc1ccc(Cl)c(Cl)c1)c1cc2ccccc2cc1O", "inhibition": "> 30"}
{"smiles": "O=C(NNC(=S)Nc1ccc(OC(F)(F)F)cc1)c1ccccc1O", "inhibition": "> 30"}
{"smiles": "O=C(NNC(=S)Nc1ccc(OCc2ccccc2)cc1)c1ccccc1O", "inhibition": "> 30"}
{"smiles": "O=C(NNC(=S)Nc1ccc(Cl)cc1Cl)c1ccccc1O", "inhibition": "> 30"}
{"smiles": "O=C(NNC(=S)Nc1ccc(F)cc1)c1ccccc1O", "inhibition": "> 30"}
{"smiles": "O=C(NNC(=S)NCCCN1CCOCC1)c1ccccc1O", "inhibition": 30}
{"smiles": "Nc1ccc(C(=O)NNC(=S)Nc2ccc(Cl)c(Cl)c2)c(O)c1", "inhibition": "> 30"}
{"smiles": "CC(=O)c1ccc(NC(=S)NNC(=O)c2ccccc2O)cc1", "inhibition": "> 30"}
{"smiles": "CCCCCNC(=S)NNC(=O)c1ccccc1O", "inhibition": "> 30"}
{"smiles": "COc1ccc(NC(=S)NNC(=O)c2ccccc2O)cc1", "inhibition": "> 30"}
{"smiles": "O=C(NNC(=S)Nc1cccc(Cl)c1)c1ccccc1O", "inhibition": "> 30"}
{"smiles": "O=C(NNC(=S)Nc1cccc(I)c1)c1ccccc1O", "inhibition": "> 30"}
{"target": "T1, D-alanine--D-alanine ligase (Enterococcus faecalis (strain ATCC 700802 / V583))", "experiment": "Inhibition of Enterococcus faecalis JH2-2 C-terminal 6His-tagged DdlB expressed in Escherichia coli LMG194 preincubated for 30 mins followed by substrate addition and measured after 20 mins in presence of 0.01% Triton X-100 by Biomol Green reagent assay"}
{"smiles": "O=C(NNC(=S)Nc1ccccc1)c1ccccc1O", "inhibition": "Active"}
{"test_system": "Klebsiella pneumoniae", "experiment": "Antibacterial activity against Klebsiella pneumoniae ATCC 700603 after 18 to 24 hrs by microdilution assay", "format": "functional, organism-based"}
{"smiles": "O=C(NNC(=S)Nc1ccccc1Cl)c1ccccc1O", "MIC": "inactive"}
{"smiles": "O=C(NNC(=S)Nc1ccc(OC(F)(F)F)cc1)c1ccccc1O", "MIC": "inactive"}
{"smiles": "O=C(NNC(=S)Nc1ccc(Cl)cc1Cl)c1ccccc1O", "MIC": "inactive"}
{"smiles": "O=C(NNC(=S)Nc1cccc(Cl)c1)c1ccccc1O", "MIC": "inactive"}
{"target": "T1, D-alanine--D-alanine ligase (Enterococcus faecalis (strain ATCC 700802 / V583))", "experiment": "Inhibition of Enterococcus faecalis JH2-2 C-terminal 6His-tagged DdlB expressed in Escherichia coli LMG194 at IC50 after 10 mins by Biomol Green reagent assay relative to control", "units": {"inhibition": "%"}}
{"smiles": "O=C(NNC(=S)Nc1ccccc1)c1ccccc1O", "inhibition": 60}
{"test_system": "Escherichia coli", "experiment": "Antibacterial activity against Escherichia coli ATCC 25922 after 18 to 24 hrs by microdilution assay", "format": "functional, organism-based"}
{"smiles": "O=C(NNC(=S)Nc1ccccc1Cl)c1ccccc1O", "MIC": "inactive"}
{"smiles": "O=C(NNC(=S)Nc1ccc(OC(F)(F)F)cc1)c1ccccc1O", "MIC": "inactive"}
{"smiles": "O=C(NNC(=S)Nc1ccc(Cl)cc1Cl)c1ccccc1O", "MIC": "inactive"}
{"smiles": "O=C(NNC(=S)Nc1cccc(Cl)c1)c1ccccc1O", "MIC": "inactive"}
{"test_system": "Pseudomonas aeruginosa", "experiment": "Antibacterial activity against Pseudomonas aeruginosa PAO1 after 18 to 24 hrs by microdilution assay", "format": "functional, organism-based"}
{"smiles": "O=C(NNC(=S)Nc1ccccc1Cl)c1ccccc1O", "MIC": "inactive"}
{"smiles": "O=C(NNC(=S)Nc1ccc(OC(F)(F)F)cc1)c1ccccc1O", "MIC": "inactive"}
{"smiles": "O=C(NNC(=S)Nc1ccc(Cl)cc1Cl)c1ccccc1O", "MIC": "inactive"}
{"smiles": "O=C(NNC(=S)Nc1cccc(Cl)c1)c1ccccc1O", "MIC": "inactive"}
{"target": "T1, D-alanine--D-alanine ligase (Enterococcus faecalis (strain ATCC 700802 / V583))", "experiment": "Inhibition of Enterococcus faecalis JH2-2 C-terminal 6His-tagged DdlB expressed in Escherichia coli LMG194 assessed as residual activity at 10 uM preincubated for 30 mins followed by substrate addition and measured after 20 mins by Biomol Green reagent assay relative to control", "units": {"Activity": "%"}}
{"smiles": "COc1ccccc1C(=O)NNC(=S)Nc1ccc(Cl)c(Cl)c1", "Activity": 100}
{"smiles": "O=C(NNC(=S)Nc1ccc(Cl)cc1)c1ccccc1", "Activity": 100}
{"smiles": "O=C(NNC(=S)Nc1ccc(Cl)c(Cl)c1)c1ccccc1F", "Activity": 100}
{"smiles": "O=c1c2ccccc2ncn1NC(=S)Nc1ccccc1", "Activity": 100}
{"smiles": "O=C(NNC(=S)Nc1ccc(Cl)c(Cl)c1)c1ccccc1", "Activity": 100}
{"smiles": "O=C(NNC(=S)Nc1ccc([N+](=O)[O-])cc1)c1ccc(O)cc1", "Activity": 100}
{"smiles": "O=C(NNC(=O)c1ccccc1)Nc1ccc(Cl)c(Cl)c1", "Activity": 100}
{"smiles": "O=C(NNC(=S)Nc1ccc(F)cc1)c1ccccc1", "Activity": 100}
{"smiles": "O=C(NNC(=S)Nc1cccc(F)c1)c1ccccc1", "Activity": 100}
{"smiles": "O=C(NNC(=O)c1ccccc1O)Nc1ccc(Cl)c(Cl)c1", "Activity": 100}
{"smiles": "O=C(NNC(=S)Nc1ccccc1F)c1ccccc1", "Activity": 100}
{"smiles": "O=C(NNC(=S)Nc1cccc(Cl)c1)c1ccccc1", "Activity": 100}
{"smiles": "O=C(NNC(=S)Nc1ccc(Cl)c(Cl)c1)c1cccc(O)c1", "Activity": 100}
{"smiles": "O=C(NNC(=S)Nc1ccc(Cl)c(Cl)c1)c1ccc(F)cc1", "Activity": 100}
{"smiles": "O=C(NNC(=S)Nc1ccccc1Cl)c1ccccc1", "Activity": 100}
{"smiles": "O=C(NNC(=S)Nc1ccc(Cl)c(Cl)c1)c1cccc(F)c1", "Activity": 100}
{"smiles": "O=C(NNC(=S)Nc1ccc(Cl)c(Cl)c1)c1ccc(O)cc1", "Activity": 100}
